Source: US11214803B2, “Modulators of YAP1 expression” (Ionis Pharmaceuticals, Inc., priority 2019, dated 2022)
Strand notation (5' to 3'): a small letter for the sugar, then the base; units joined by * are phosphorothioate-linked, units joined directly phosphodiester-linked; [ ] holds rarer units or linkages, { } end groups; capitals alone tell only the bases. k = constrained ethyl (cEt); [5mC] = 5-methylcytosine; d = 2'-deoxy (DNA)

System: Yap1 mRNA
Test: Antisense inhibition of human Yap1 in A-431 cells by cEt gapmers, single dose (Example 4, RTS4814)
Type: cell-based
Summary of the method: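 A-431 cells took up 3-10-3 cEt gapmers (16-mer, full phosphorothioate, 5-methylcytosines) by free uptake at 2,000 nM for about 48 h. Yap1 mRNA was quantified by qRT-PCR, normalized to total RNA (RIBOGREEN), and reported as % of untreated control.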

[1] = Table 17, A-431 cells, 5,000 cells per well, free uptake, 2,000 nM, approximately 48 hours, RTS4814, normalized to RIBOGREEN, Yap1 mRNA relative to untreated control cells
[2] = Table 16, A-431 cells, 5,000 cells per well, free uptake, 2,000 nM, approximately 48 hours, RTS4814, normalized to RIBOGREEN, Yap1 mRNA relative to untreated control cells
[3] = Yap1 mRNA remaining as percent of untreated control, 3-10-3 cEt gapmers, A-431 cells, Table 36
[4] = Yap1 mRNA remaining as percent of untreated control, 3-10-3 cEt gapmers, A-431 cells, Table 37
[5] = Table 14, A-431 cells, 5,000 cells per well, free uptake, 2,000 nM, approximately 48 hours, RTS4814, normalized to RIBOGREEN, Yap1 mRNA relative to untreated control, * = targets amplicon region of primer probe set
[6] = Table 15, A-431 cells, 5,000 cells per well, free uptake, 2,000 nM, approximately 48 hours, RTS4814, normalized to RIBOGREEN, Yap1 mRNA relative to untreated control, * = targets amplicon region of primer probe set

1076067 (kG*k[5mC]*kA*dT*dA*dT*dA*dA*dG*dA*dT*dG*dT*kT*kT*kG; antisense) [Compound 1076067]
YAP1 (% UTC) [1]: 4 % UTC

1075042 (antisense kT*kT*kA*dA*dA*dA*dG*dG*dT*dT*dT*dG*dG*k[5mC]*kA*k[5mC]) [Compound 1075042]
YAP1 (% UTC) [2]: 17 % UTC

1076066 (k[5mC]*kA*kT*dA*dT*dA*dA*dG*dA*dT*dG*dT*dT*kT*kG*k[5mC]; antisense) [Compound 1076066]
YAP1 (% UTC) [2]: 8 % UTC

1075350 (antisense kG*kA*kT*dT*dA*dA*dA*dG*d[5mC]*dT*d[5mC]*dA*dT*kT*kG*kA) [compound 1075350]
YAP1 (% UTC) [3]: 62 % UTC

1075126 (k[5mC]*kT*kT*dA*dA*dA*dT*d[5mC]*dT*dT*dA*dG*d[5mC]*kA*kA*k[5mC]; antisense) [compound 1075126]
YAP1 (% UTC) [3]: 20 % UTC

1075831 (kT*kA*kT*dT*dA*dG*d[5mC]*d[5mC]*dT*dT*d[5mC]*dT*dA*kA*k[5mC]*k[5mC]; antisense) [compound 1075831]
YAP1 (% UTC) [4]: 59 % UTC

1074656 (antisense kG*kA*k[5mC]*dT*dT*dA*dA*dT*dT*d[5mC]*dA*dA*dG*kA*kT*kT) [Compound 1074656]
YAP1 (% UTC) [5]: 31 % UTC

1074594 (antisense kT*kA*kG*dG*dA*dG*d[5mC]*dA*dA*dG*dT*d[5mC]*dT*kT*kG*kT) [Compound 1074594]
YAP1 (% UTC) [2]: 6 % UTC

1074273 (antisense k[5mC]*kT*kT*dA*dT*dG*dG*dT*dT*dT*dA*dT*dA*kT*kA*kG) [Compound 1074273]
YAP1 (% UTC) [6]: 34 % UTC

1075287 (antisense kT*kA*kT*dT*dA*d[5mC]*dG*dG*dA*d[5mC]*dA*dG*dA*kA*kG*kT) [compound 1075287]
YAP1 (% UTC) [4]: 58 % UTC

1076214 (kA*kT*k[5mC]*d[5mC]*dT*dA*dT*dA*d[5mC]*dA*dT*dT*dA*kA*kG*kA; antisense) [compound 1076214]
YAP1 (% UTC) [3]: 67 % UTC

1074582 (DNA kT*kA*kA*dA*d[5mC]*d[5mC]*dA*d[5mC]*dT*dA*dT*dA*dA*kA*kG*k[5mC]; antisense) [compound 1074582]
YAP1 (% UTC) [3]: 18 % UTC

1075267 (antisense k[5mC]*kT*kA*dT*dT*dT*dA*dG*dA*dA*dT*dA*dA*kG*kT*kG) [Compound 1075267]
YAP1 (% UTC) [1]: 83 % UTC

1075712 (kG*kA*k[5mC]*dG*d[5mC]*dG*dA*dA*dA*dT*dA*d[5mC]*dT*kT*kA*k[5mC]; antisense) [Compound 1075712]
YAP1 (% UTC) [5]: 7 % UTC

1074753 (kT*kA*k[5mC]*dA*dT*dT*dA*dG*dG*dA*dA*d[5mC]*dA*kA*kG*kG; antisense) [Compound 1074753]
YAP1 (% UTC) [6]: 4 % UTC

1075841 (kA*kT*kT*dT*dA*dG*dG*dT*dA*d[5mC]*dT*d[5mC]*dA*kG*kT*kA; antisense) [Compound 1075841]
YAP1 (% UTC) [6]: 27 % UTC

1075767 (kT*kA*kT*dT*dA*d[5mC]*dA*d[5mC]*dA*dG*dG*d[5mC]*dA*kG*kG*k[5mC]; antisense) [compound 1075767]
YAP1 (% UTC) [4]: 12 % UTC

1074721 (antisense kG*kG*kA*dA*dG*dA*dT*d[5mC]*dT*d[5mC]*d[5mC]*dA*dT*kA*kT*kT) [Compound 1074721]
YAP1 (% UTC) [6]: 43 % UTC

1074625 (antisense kA*kT*kA*dA*dG*dG*dG*d[5mC]*dT*dT*dA*dT*dT*k[5mC]*kT*kA) [Compound 1074625]
YAP1 (% UTC) [6]: 42 % UTC

1074145 (antisense kA*kA*kG*d[5mC]*dG*dG*d[5mC]*dG*dA*d[5mC]*dG*dG*d[5mC]*kT*kG*k[5mC]) [Compound 1074145]
YAP1 (% UTC) [6]: 73 % UTC

1076515 (antisense k[5mC]*kT*kG*d[5mC]*dA*dA*dG*dA*dA*dT*dA*d[5mC]*dT*kT*kT*kA) [Compound 1076515]
YAP1 (% UTC) [1]: 30 % UTC

1074944 (antisense kA*kA*kA*dA*d[5mC]*d[5mC]*d[5mC]*dT*dT*dT*dG*dG*dT*k[5mC]*kT*k[5mC]) [Compound 1074944]
YAP1 (% UTC) [5]: 89 % UTC

1075318 (antisense kA*kT*k[5mC]*d[5mC]*dT*dA*dA*dA*dG*d[5mC]*d[5mC]*dA*d[5mC]*kT*kG*k[5mC]) [compound 1075318]
YAP1 (% UTC) [3]: 72 % UTC

1075489 (antisense kG*kA*kG*d[5mC]*dA*dA*d[5mC]*dA*dA*d[5mC]*dT*dA*dT*kG*kA*kG) [Compound 1075489]
YAP1 (% UTC) [6]: 51 % UTC

1075776 (kA*kT*kG*dT*dG*dA*dT*dA*dT*dG*dG*dA*dT*kT*k[5mC]*kT; antisense) [Compound 1075776]
YAP1 (% UTC) [5]: 10 % UTC
